Reference: US10561638B2, “Methods for treating dependence” (Biotie Therapies, Inc., priority 2007, dated 2020)
“Also recorded” adds a separate entry of the source.

Tested on: tissue noradrenaline and dopamine content
Assay: Tissue catecholamines in SHRs after three oral doses 12 h apart
Assay type: in vivo, spontaneously hypertensive rats
Details: for increase in DA/NE ratio / nepicastat compared with SKF-102698, catecholamine changes: 30 mg/kg; for maximal increase in DA/NE ratio: 100 mg/kg; for decrease in noradrenaline / increase in dopamine: 100 mg/kg po x3
Procedure: Male SHRs (15-16 weeks old, Charles River, Wilmington, Mass., USA) were used in in vivo studies. On the day of the study, animals were weighed and randomly assigned to be dosed with either vehicle (control) or the appropriate dose of nepicastat (3, 10, 30 or 100 mg·kg^−1, po) or Compound B (30 mg·kg^−1, po) three consecutive times, twelve hours apart. At six hours after the third dose, the rats were anaesthetized with halothane, decapitated and tissues (cerebral cortex, mesenteric artery and left ventricle) were rapidly harvested, weighed, placed in iced perchloric acid (0.4 M), frozen in liquid nitrogen and stored at −70° C. until subsequent analysis. To quantify noradrenaline and dopamine concentrations, tissues were homogenized by brief sonication and centrifuged at 13,000 rpm for 30 minutes at 4° C. The supernatant, spiked with 3,4-dihydroxybenzylamine (internal standard), was assayed for noradrenaline and dopamine by HPLC using electrochemical detection.
Nepicastat was used in in vivo biochemical studies to study the effects in spontaneously hypertensive rats (SHRs) and normal beagle dogs. On the day of the study, the animals were weighed and randomly assigned to receive either placebo (vehicle) or the appropriate dose of nepicastat. Each rat was dosed orally three times, 12 h apart, beginning in the morning. At 6 h after the third dose, the rats were anesthetized with halothane, decapitated, and the tissues (cerebral cortex, mesenteric artery and left ventricle) were rapidly harvested, weighed, placed in iced 0.4 M perchloric acid, frozen in liquid nitrogen and stored at −70° C. until analysis. Tissue NE and DA concentrations were assayed by HPLC using electrochemical detection. Male beagle dogs (10-16 kg, Marshall Farms USA Inc, North Rose, N.Y.) were used in the study. On the day of the study, dogs were randomly assigned to receive either placebo (empty capsule) or the appropriate dose of nepicastat. Each dog was dosed twice a day for 4.5 days. 6 h after the first dose on day 5, the dogs were euthanized with pentobarbital and the tissues (cerebral cortex. renal artery, left ventricle) harvested, weighed, placed in iced 0.4 M perchloric acid, frozen in liquid nitrogen and stored at −70° C. until analysis. Tissue NE and DA concentrations were assayed by HPLC using electrochemical detection.
Fifteen to sixteen week old male spontaneously hypertensive rats (SHRs) (Charles River Labs) were allowed food and water ad libitum. Animals were weighed and randomly assigned to one of the following treatment groups: 1) distilled water vehicle (dH2O), or nepicastat at 3, 10, 30, and 100 mg/kg, 2) Compound B at 30 mg/kg in distilled water, or 3) PEG 400:dH2O vehicle or SKF-102698 at 30 mg/kg. Each rat was dosed orally (p.o., using a gavage needle) three times 12 hours apart, beginning in the morning. At six hours after the third dose rats were anesthetized with halothane, decapitated, and the cortex, mesenteric artery, and left ventricle were rapidly harvested, weighed, placed in iced 0.4 M perchioric acid, frozen in liquid nitrogen, and stored at −70° C. Tissue dopamine and norepinephrine concentrations were assayed by high performance liquid chromatography and electrochemical detection.
Four series of statistical analyses were performed. The first series compared the rats treated with various doses of nepicastat, and Compound B at 30 mg/kg to the vehicle control animals. A nonparametric one-way analysis of variance (ANOVA) with factor Dose and blocking factor Day was performed for each tissue and strain separately. […] Pairwise analysis between treated and controls at each dose were carried out using Dunnett's test to control the experiment-wise error rate. The second statistical test compared SKF-102698 to the PEG-dH2O vehicle treated group using a nonparametric t-test. The third statistical test compared Compound B to nepicastat at doses of 30 mg/kg using a nonparametric t-test.

[1] = cerebral cortex, 30 and 100 mg/kg
[2] = left ventricle and mesenteric artery
[3] = left ventricle, 3, 10, 30 and 100 mg/kg

Fc1cc(F)cc(Cn2cc[nH]c2=S)c1 [SKF-102698, reference compound]
increase in DA/NE ratio (cerebral cortex): 2.7 fold | dopamine vs vehicle (cerebral cortex, 30 mg/kg x3): significantly greater (p<0.01) than vehicle | dopamine/norepinephrine ratio vs vehicle (cerebral cortex, 30 mg/kg x3): significantly (p<0.01) greater than vehicle | norepinephrine vs vehicle (cerebral cortex, 30 mg/kg x3): significantly lower than vehicle | increase in DA/NE ratio (left ventricle): 3.5 fold | dopamine vs vehicle (left ventricle, 30 mg/kg x3): significantly greater (p<0.01) than vehicle | dopamine/norepinephrine ratio vs vehicle (left ventricle, 30 mg/kg x3): significantly (p<0.05) greater than vehicle | norepinephrine vs vehicle (left ventricle, 30 mg/kg x3): not different from vehicle | increase in DA/NE ratio (mesenteric artery): 5.5 fold | dopamine vs vehicle (mesenteric artery, 30 mg/kg x3): significantly greater than vehicle | dopamine/norepinephrine ratio vs vehicle (mesenteric artery, 30 mg/kg x3): significantly greater than vehicle | norepinephrine vs vehicle (mesenteric artery, 30 mg/kg x3): significantly lower than vehicle

Cl.NCc1c[nH]c(=S)n1[C@H]1CCc2c(F)cc(F)cc2C1 [nepicastat, (S)-5-Aminomethyl-1-(5,7-difluoro-1,2,3,4-tetrahydronaphth-2-yl)-2,3-dihydro-2-thioxo-1H-imidazole hydrochloride]
nepicastat compared with the R-enantiomer (Compound B), catecholamine changes (30 mg/kg po x3, mesenteric artery and/or left ventricle, hydrochloride): significantly greater changes in catecholamine content; also recorded: significantly more potent then the R enantiomer; also recorded: significantly more effective (p<0.01) than Compound B | increase in DA/NE ratio (cerebral cortex): 1.5 fold | norepinephrine levels, nepicastat compared to Compound B (cerebral cortex, 30 mg/kg x3): significantly lower | nepicastat compared with SKF-102698, catecholamine changes (cerebral cortex, hydrochloride): significantly less effects than SKF-102698; also recorded: greater for SKF-102698 than for nepicastat; also recorded: less effective in the cerebral cortex | maximal increase in DA/NE ratio (cerebral cortex): 3.2 fold | decrease in noradrenaline (cerebral cortex): 42% | increase in dopamine (cerebral cortex): 86% | dopamine concentration vs vehicle [1]: significantly (p<0.05) greater | dopamine/norepinephrine ratio vs vehicle [1]: significantly (p<0.05) greater | norepinephrine concentration vs vehicle [1]: significantly (p<0.05) lower | dose for significant decrease in norepinephrine [2]: 10 mg/kg | dose for significant increase in dopamine [2]: 3.0 mg/kg | dose for significant increase in dopamine/norepinephrine ratio [2]: 3.0 mg/kg | nepicastat compared with SKF-102698, catecholamine changes (left ventricle and/or mesenteric artery, hydrochloride): significantly more potent than the DBH inhibitor SKF-102698; also recorded: greater for nepicastat than for SKF-102698; also recorded: more effective than SKF-102698 | increase in DA/NE ratio (left ventricle): 7.5 fold | maximal increase in DA/NE ratio (left ventricle): 11 fold | decrease in noradrenaline (left ventricle): 35% | increase in dopamine (left ventricle): 800% | dopamine concentration vs vehicle [3]: significantly (p<0.05) greater than vehicle | dopamine/norepinephrine ratio vs vehicle [3]: significantly (p<0.05) greater than vehicle | norepinephrine concentration vs vehicle (left ventricle, 10, 30 and 100 mg/kg): significantly (p<0.05) lower than vehicle | doses at which catecholamine changes attained significance (p<0.05) (mesenteric artery and left ventricle): ≥ 3 mg/kg | increase in DA/NE ratio (mesenteric artery): 8.3 fold | maximal increase in DA/NE ratio (mesenteric artery): 14 fold | decrease in noradrenaline (mesenteric artery): 47% | increase in dopamine (mesenteric artery): 820% | dopamine concentration vs vehicle (mesenteric artery, 3, 10, 30 and 100 mg/kg): significantly (p<0.05) greater than vehicle | norepinephrine concentration vs vehicle (mesenteric artery, 10, 30 and 100 mg/kg): not significantly less (p>0.05) | dopamine/norepinephrine ratio vs vehicle (mesenteric artery, all doses): significantly (p<0.05) greater than vehicle
